Consider one compound from US12459925B2, “Sulphonyl urea derivatives as NLRP3 inflammasome modulators” (priority 2017, dated 2025).

Bounds are passed on as bounds.

In this assay the test system is IL-1β release upon NLRP3 activation in peripheral blood mononuclear cells (PBMC). Kind of assay: PBMC IC50 determination assay (IL-1β release, Protocol A ELISA / Protocol B HTRF). In kind it is cell-based. The settings on record: Homo sapiens; PBMC primed with LPS 3 h, compound 30 min, stimulated with ATP (5 mM) or nigericin (10 μM) 1 h; IL-1β in media; read-out: Average PBMC IC50. As for the experimental part: The compounds of the present disclosure were tested for their inhibitory activity against IL-1β release upon NLRP3 activation in peripheral blood mononuclear cells (PBMC).
Isolated cells were seeded into the wells of a 96-well plate and incubated for 3 h with lipopolysaccharide (LPS). Following medium exchange, the compounds of the present disclosure were added (a single compound per well) and the cells were incubated for 30 min. Next, the cells were stimulated either with ATP (5 mM) or nigericin (10 μM) for 1 h and the cell culture media from the wells were collected for further analysis.
The release of IL1-β into the media was determined by a quantitative detection of IL-1β in the media using an IL-1β enzyme-linked immunosorbent assay (ELISA) Ready-SET-Go!, eBioscience cat. […] Subsequently, plates were blocked with blocking buffer for 1 h at room temperature (rt) and after washing with a buffer (PBS with 0.05% Tween-20) incubated with protein standard and culture media. […] Plates were washed and incubated with HRP-streptavidin for 30 min at rt and washed again. The signal was developed after addition of 3,3′,5,5′-tetramethylbenzidine-peroxidase (TMB) until colour appeared and the reaction was stopped by 2 M H2SO4. A microplate spectrophotometer (BioTek) was used to detect signals with 450 nm. The detection range of IL-1β ELISA was 2-150 ng/ml.
Isolated cells were seeded into the wells (280,000 cells/well) of a 96-well plate and incubated for 3 h with lipopolysaccharide (LPS, 1 μg/ml diluted 1000× from a 1 mg/ml stock solution). The compounds of the present disclosure were added (a single compound per well) and the cells were incubated for 30 min. Next, the cells were stimulated with ATP (5 mM final concentration diluted 20× from a 100 mM stock solution) for 1 h and the cell culture media from the wells were collected for further analysis.
The release of IL-1β into the media was determined by quantitative detection of IL-1β in the media using HTRF®, CisBio cat. No. 62HIL1BPEH. Briefly, cell culture supernatant were dispensed directly into the assay plate containing antibodies labelled with the HTRF® donor and acceptor. A microplate spectrophotometer (BMG) was used to detect signals at 655 nm and 620 nm. The detection range of IL-1β HTRF® was 39-6500 pg/ml.
Background: ELISA stands for enzyme-linked immunosorbent assay.

Take `Cc1noc(N(C2CCCN(C)C2)S(=O)(=O)NC(=O)Nc2c3c(cc4c2CCC4)CCC3)c1C` (stereo not shown) [Compound 116]: the IC50 (usually the concentration that gives 50% inhibition) was < 1000 nM.
